Results published in patent US5922557A, “System for stably expressing a high-affinity camp phosphodiesterase and use thereof” (Merck & Co., Inc., priority 1998, dated 1999).

Assays:
[1] = tested on: PDE IVA enzyme and various deletion mutants; conditions: cited from earlier work
[2] = tested on: constitutive phosphodiesterase of control cells (VH2); test: Constitutive phosphodiesterase activity in control cells (VH2); format: biochemical; conditions: control cells (VH2) in selection media
Method: (§1) CHO-K1 cells were lysed by sonication for 10 secs at a power setting of 50% (BRAUNSONIC Model 2000) in an ice cold solution containing 50 mM Tris, pH 7.5; 1 mM EDTA; and 200 μM mercaptoethanol. The soluble and particulate fractions of the cell were obtained by centrifuging the sonicate for 90 min at 100,000×g at 4° C. PDE activity was measured in a solution containing 50 mM Tris, pH 7.5; 10 mM MgCl2 ; 1 mM EDTA; and 100 nM (or indicated) 3H-cAMP (100 ml final volume) in the presence of varying concentrations of inhibitor. The reaction mixture containing enzyme was incubated for 10 min at 30° C. in 96-well View Plates (PACKARD), and terminated by the addition of 50 μl Phosphodiesterase Scintillation Proximity Assay (SPA) Beads ([sequence]) containing 18 mM ZnSO4. The amount of 3H-cAMP hydrolysis was determined by counting the plates in a WALLAC 1450 μBeta LSC counter.

[3] = tested on: full-length PDE Iva / HPDE IV; conditions: rolipram (racemic); cited from earlier work
[4] = tested on: catalytic portion of PDE IV; conditions: UCR1 and UCR2 deleted; cited from earlier work
patients = conditions: clinic; cited from earlier work
[5] = tested on: high-affinity rolipram binding site, rat forebrain membranes; conditions: cited from earlier work
cAMP PDE = conditions: membraneous and cytosolic fractions, rat brain; cited from earlier work
FLAG PDE IVAmet330 [6] = conditions: truncated, catalytically active enzyme
Method: as §1
CHO-K1 cells stably expressing epitope FLAG PDE IV constructs were lysed by sonication for 10 secs at a power setting of 50% (Braunsonic Model 2000) in an ice cold solution containing 50 mM Tris, pH 7.5; 1 mM EDTA; protease inhibitor cocktail (Boehringer, Montreal, QUE). The soluble and particulate fractions of the cell were obtained by centrifuging the sonicate for 90 min at 100,000×g at 40° C.

FLAG PDE IVAmet330 [7] = target: FLAG PDE IVAmet330 (Homo sapiens, UniProt P27815, M723I); format: binding; design: made in house; conditions: 0.2 to 100 nM [^3 H](R)-rolipram
FLAG PDE IVAmet330 (Homo sapiens, UniProt P27815, M723I), sequence (P27815 332-886 M723I): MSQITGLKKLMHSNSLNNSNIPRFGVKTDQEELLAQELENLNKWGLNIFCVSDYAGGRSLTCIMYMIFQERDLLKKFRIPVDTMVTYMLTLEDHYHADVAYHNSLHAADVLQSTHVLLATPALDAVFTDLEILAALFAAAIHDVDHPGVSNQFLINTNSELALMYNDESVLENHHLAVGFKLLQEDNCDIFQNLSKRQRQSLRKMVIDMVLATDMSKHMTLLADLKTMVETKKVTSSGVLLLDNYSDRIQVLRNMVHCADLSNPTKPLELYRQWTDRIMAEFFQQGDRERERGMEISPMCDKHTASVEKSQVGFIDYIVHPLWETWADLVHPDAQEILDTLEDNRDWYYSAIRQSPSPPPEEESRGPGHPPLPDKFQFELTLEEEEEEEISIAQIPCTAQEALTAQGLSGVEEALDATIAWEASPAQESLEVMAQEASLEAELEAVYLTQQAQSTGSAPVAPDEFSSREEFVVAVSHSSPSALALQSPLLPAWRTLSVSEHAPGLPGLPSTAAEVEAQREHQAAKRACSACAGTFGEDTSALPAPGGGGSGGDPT
Method: CHO-K1 cells stably expressing epitope FLAG PDE IV constructs were lysed by sonication for 10 secs at a power setting of 50% (Braunsonic Model 2000) in an ice cold solution containing 50 mM Tris, pH 7.5; 1 mM EDTA; protease inhibitor cocktail (Boehringer, Montreal, QUE). The soluble and particulate fractions of the cell were obtained by centrifuging the sonicate for 90 min at 100,000×g at 40° C. […] The affinity matrix was washed with column buffer until all unbound protein was eluted from the column as determined with a UV-2 flow cell. Bound material was eluted with column buffer containing 0.5 mg/ml. FLAG peptide at a flow rate of 2 ml/min.
The filters were quickly washed with an ice-cold solution of 50 mM Tris; pH 7.5. […] Non-specific binding amounted to less than 5% of the total measured binding activity.

PDE IVh6.1 = PDE IVh6.1 in S. cerevisiae or COS-1 cells; cited from earlier work

SMILES | class of binding sites [1] | rolipram-sensitivity of constitutive phosphodiesterase activity [2] | inhibitory kinetics with respect to full-length PDE Iva [3] | saturable high-affinity rolipram binding [4] | nausea in patients (patients) | therapeutic window (patients) | difference between measured Kd (binding) and IC50 (enzymatic) [5] [fold] | concentrations inhibiting cAMP PDE activity (cAMP PDE) | sensitivity of truncated PDE IVa to inhibition (FLAG PDE IVAmet330 [6]) | saturable high-affinity binding to truncated enzyme (FLAG PDE IVAmet330 [7]) | inhibitory kinetics with respect to substrate (PDE IVh6.1)
COc1ccc(C(=O)Nc2c(Cl)cncc2Cl)cc1OC1CCCC1 [RP 73401] | single class of high-affinity binding sites |  |  |  |  |  |  |  |  |  | 
COc1ccc(C2CNC(=O)C2)cc1OC1CCCC1 (racemic) [rolipram] |  | did not exhibit any rolipram-sensitivity | Mixed inhibitory kinetics | no detectable saturable high-affinity rolipram binding | profound episodes of nausea in patients | extremely narrow therapeutic window | > 1000 | micromolar concentrations | low sensitivity to inhibition by rolipram | fails to bind rolipram with high-affinity | simple competitive inhibitor
